Measurements published in publication PMC8162404, “Proteomimetic surface fragments distinguish targets by function” (Chemical Science, 2020).
Like-named read-outs stand apart in the source and are kept apart here.

Assays:
Experiment in all cases: Pull-down assay with immobilized protein and LSM libraries
CaM = target: T1, CaM (Bos taurus, UniProt P62157); format: binding, bovine; conditions: 1:2 stoichiometry assumed, read-out: Surface mapping KD (apparent)
T1 construct: made in house; host or cells: E. coli BL21 (DE3)
In short: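 CaM buffer was 20 mM HEPES pH 7.4, 150 mM NaCl, 5 mM CaCl2. LSM sublibrary members ([…]) incubated 30 min, RT, with equimolar His-tagged protein on Co-NTA resin. HPLC-MS measured unbound probes; bound fraction relative to resin-only background gave dissociation constants.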

S100A4 = target: T2, S100A4 (Homo sapiens, UniProt P26447); format: binding; conditions: 1:1 binding assumed, read-out: Surface mapping KD (apparent)
T2 construct: made in house; host or cells: Escherichia coli BL21(DE3)
In short: (§1)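 Buffers were HEPES pH 7.4 with 150 mM NaCl, plus 1 mM TCEP and 1 mM CaCl2 (50 mM HEPES) for S100A4 and S100B, 1 mM TCEP for Gal-1, and no additive for RecQ-WH. Immobilized protein at 64 µM was equilibrated 30 min with the LSM sublibrary, and unbound probes were measured by LC-MS.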

S100B = target: T3, S100B (Homo sapiens, UniProt P04271); format: binding; conditions: 1:1 binding assumed, read-out: Surface mapping KD (apparent)
T3 construct: made in house; host or cells: Escherichia coli BL21(DE3)
T3 sequence (P04271 1-92): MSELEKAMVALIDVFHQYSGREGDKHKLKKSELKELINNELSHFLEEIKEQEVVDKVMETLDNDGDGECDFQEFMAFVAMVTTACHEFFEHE
In short: as §1

Gal-1 = target: T4, Gal-1 (Homo sapiens, UniProt P09382); format: binding; conditions: 1:1 binding assumed, read-out: Surface mapping KD (apparent)
T4 construct: made in house; host or cells: E. coli BL21(DE3)
In short: as §1

T2 sequence (P26447 whole entry): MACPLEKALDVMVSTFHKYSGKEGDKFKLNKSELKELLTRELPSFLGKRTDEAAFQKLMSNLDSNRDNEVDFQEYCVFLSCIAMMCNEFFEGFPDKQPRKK
T4 sequence (P09382 whole entry): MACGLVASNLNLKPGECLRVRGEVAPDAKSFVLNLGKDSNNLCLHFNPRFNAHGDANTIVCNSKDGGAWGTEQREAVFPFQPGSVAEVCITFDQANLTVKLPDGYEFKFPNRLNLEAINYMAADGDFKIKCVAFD

Row | Structure (SMILES) | Kd (CaM; H12 library) | Kd (S100A4; H12 library) | Kd (S100B; H12 library) | Kd (Gal-1; H12 library) | Kd (CaM; H14 library) | Kd (S100A4; H14 library) | Kd (S100B; H14 library) | Kd (Gal-1; H14 library)
1 | CSCC[C@@H](CC(=O)N[C@H]1CCC[C@@H]1C(=O)N[C@H]1CCC[C@@H]1C(N)=O)NC(=O)[C@H]1CCC[C@@H]1NC(=O)[C@H]1CCC[C@@H]1NC(=O)C[C@H](CCCNC(=N)N)NC(=O)[C@H]1CCC[C@@H]1NC(=O)[C@H]1CCC[C@@H]1N [H12 RM] | 464 µM | 335 µM | 96 µM | 201 µM |  |  |  | 
2 | N=C(N)NCCC[C@@H](CC(=O)N[C@H]1CCC[C@@H]1C(=O)N[C@H]1CCC[C@@H]1C(N)=O)NC(=O)[C@H]1CCC[C@@H]1NC(=O)[C@H]1CCC[C@@H]1NC(=O)C[C@H](CCCNC(=N)N)NC(=O)[C@H]1CCC[C@@H]1NC(=O)[C@H]1CCC[C@@H]1N [H12 RR] | 123 µM | 210 µM | 89 µM | 181 µM |  |  |  | 
3 | N=C(N)NCCC[C@@H](CC(=O)N[C@H]1CCC[C@@H]1C(=O)N[C@H]1CCC[C@@H]1C(=O)N[C@H](CC(=O)N[C@H]1CCC[C@@H]1C(=O)N[C@H]1CCC[C@@H]1C(N)=O)Cc1c[nH]c2ccccc12)NC(=O)[C@H]1CCC[C@@H]1NC(=O)[C@H]1CCC[C@@H]1N [H12 RW] | 19 µM | 95 µM | 25 µM | 126 µM |  |  |  | 
4 | N=C(N)NCCC[C@@H](CC(=O)N[C@H]1CCC[C@@H]1C(=O)N[C@H]1CCC[C@@H]1C(=O)N[C@H](CC(=O)N[C@H]1CCC[C@@H]1C(=O)N[C@H]1CCC[C@@H]1C(N)=O)Cc1ccc(O)cc1)NC(=O)[C@H]1CCC[C@@H]1NC(=O)[C@H]1CCC[C@@H]1N [H12 RY] | 381 µM | 400 µM | 89 µM | 198 µM |  |  |  | 
5 | CC(C)[C@@H](CC(=O)N[C@H]1CCC[C@@H]1C(=O)N[C@H]1CCC[C@@H]1C(=O)N[C@H](CC(=O)N[C@H]1CCC[C@@H]1C(=O)N[C@H]1CCC[C@@H]1C(N)=O)Cc1ccccc1)NC(=O)[C@H]1CCC[C@@H]1NC(=O)[C@H]1CCC[C@@H]1N [H12 VF] | 128 µM | 95 µM | 45 µM | 388 µM |  |  |  | 
6 | CC[C@H](C)[C@@H](CC(=O)N[C@H]1CCC[C@@H]1C(=O)N[C@H]1CCC[C@@H]1C(N)=O)NC(=O)[C@H]1CCC[C@@H]1NC(=O)[C@H]1CCC[C@@H]1NC(=O)C[C@@H](NC(=O)[C@H]1CCC[C@@H]1NC(=O)[C@H]1CCC[C@@H]1N)C(C)C [H12 VI] | 164 µM | 190 µM | 92 µM | 469 µM |  |  |  | 
7 | CC(C)C[C@@H](CC(=O)N[C@H]1CCC[C@@H]1C(=O)N[C@H]1CCC[C@@H]1C(N)=O)NC(=O)[C@H]1CCC[C@@H]1NC(=O)[C@H]1CCC[C@@H]1NC(=O)C[C@@H](NC(=O)[C@H]1CCC[C@@H]1NC(=O)[C@H]1CCC[C@@H]1N)C(C)C [H12 VL] | 164 µM | 190 µM | 92 µM | 469 µM |  |  |  | 
8 | CC(C)[C@@H](CC(=O)N[C@H]1CCC[C@@H]1C(=O)N[C@H]1CCC[C@@H]1C(=O)N[C@H](CC(=O)N[C@H]1CCC[C@@H]1C(=O)N[C@H]1CCC[C@@H]1C(N)=O)Cc1c[nH]c2ccccc12)NC(=O)[C@H]1CCC[C@@H]1NC(=O)[C@H]1CCC[C@@H]1N [H12 VW] | 56 µM | 184 µM | 31 µM | 346 µM |  |  |  | 
9 | CC(C)[C@@H](CC(=O)N[C@H]1CCC[C@@H]1C(=O)N[C@H]1CCC[C@@H]1C(=O)N[C@H](CC(=O)N[C@H]1CCC[C@@H]1C(=O)N[C@H]1CCC[C@@H]1C(N)=O)Cc1ccc(O)cc1)NC(=O)[C@H]1CCC[C@@H]1NC(=O)[C@H]1CCC[C@@H]1N [H12 VY] | 247 µM | 392 µM | 210 µM | 413 µM |  |  |  | 
10 | NC(=O)[C@H]1CCC[C@@H]1NC(=O)[C@H]1CCC[C@@H]1NC(=O)C[C@H](Cc1ccccc1)NC(=O)[C@H]1CCC[C@@H]1NC(=O)[C@H]1CCC[C@@H]1NC(=O)C[C@H](Cc1c[nH]c2ccccc12)NC(=O)[C@H]1CCC[C@@H]1NC(=O)[C@H]1CCC[C@@H]1N [H12 WF] | 9 µM | 135 µM | 7 µM | 117 µM |  |  |  | 
11 | CC[C@H](C)[C@@H](CC(=O)N[C@H]1CCC[C@@H]1C(=O)N[C@H]1CCC[C@@H]1C(N)=O)NC(=O)[C@H]1CCC[C@@H]1NC(=O)[C@H]1CCC[C@@H]1NC(=O)C[C@H](Cc1c[nH]c2ccccc12)NC(=O)[C@H]1CCC[C@@H]1NC(=O)[C@H]1CCC[C@@H]1N [H12 WI] | 134 µM | 164 µM | 18 µM | 174 µM |  |  |  | 
12 | CC(C)C[C@@H](CC(=O)N[C@H]1CCC[C@@H]1C(=O)N[C@H]1CCC[C@@H]1C(N)=O)NC(=O)[C@H]1CCC[C@@H]1NC(=O)[C@H]1CCC[C@@H]1NC(=O)C[C@H](Cc1c[nH]c2ccccc12)NC(=O)[C@H]1CCC[C@@H]1NC(=O)[C@H]1CCC[C@@H]1N [H12 WL] | 27 µM | 105 µM | 21 µM | 200 µM |  |  |  | 
13 | NC(=O)[C@H]1CCC[C@@H]1NC(=O)[C@H]1CCC[C@@H]1NC(=O)C[C@H](Cc1c[nH]c2ccccc12)NC(=O)[C@H]1CCC[C@@H]1NC(=O)[C@H]1CCC[C@@H]1NC(=O)C[C@H](Cc1c[nH]c2ccccc12)NC(=O)[C@H]1CCC[C@@H]1NC(=O)[C@H]1CCC[C@@H]1N [H12 WW] | 413 µM | 56 µM | 8 µM | 151 µM |  |  |  | 
14 | CC(C)C[C@@H](CC(=O)N[C@H]1CCCC[C@@H]1C(=O)N[C@H]1CCCC[C@@H]1C(=O)N[C@@H](CCC(N)=O)CC(=O)N[C@H]1CCCC[C@@H]1C(N)=O)NC(=O)[C@H]1CCCC[C@@H]1N [H14 LQ] |  |  |  |  | 275 µM | 304 µM | 435 µM | 343 µM
